The source made the active and inactive calls.

One assay deals with Transthyretin (Homo sapiens, UniProt P02766). The experiment in a line: Luminescence-based cell-based high throughput dose response assay to identify activators of Transthyretin (TTR) transcription. The assay is classed as functional.
For the next assay, the target named is T1, Hexokinase HKDC1 (Homo sapiens, UniProt Q2TB90).
T1 sequence (Q2TB90 whole entry): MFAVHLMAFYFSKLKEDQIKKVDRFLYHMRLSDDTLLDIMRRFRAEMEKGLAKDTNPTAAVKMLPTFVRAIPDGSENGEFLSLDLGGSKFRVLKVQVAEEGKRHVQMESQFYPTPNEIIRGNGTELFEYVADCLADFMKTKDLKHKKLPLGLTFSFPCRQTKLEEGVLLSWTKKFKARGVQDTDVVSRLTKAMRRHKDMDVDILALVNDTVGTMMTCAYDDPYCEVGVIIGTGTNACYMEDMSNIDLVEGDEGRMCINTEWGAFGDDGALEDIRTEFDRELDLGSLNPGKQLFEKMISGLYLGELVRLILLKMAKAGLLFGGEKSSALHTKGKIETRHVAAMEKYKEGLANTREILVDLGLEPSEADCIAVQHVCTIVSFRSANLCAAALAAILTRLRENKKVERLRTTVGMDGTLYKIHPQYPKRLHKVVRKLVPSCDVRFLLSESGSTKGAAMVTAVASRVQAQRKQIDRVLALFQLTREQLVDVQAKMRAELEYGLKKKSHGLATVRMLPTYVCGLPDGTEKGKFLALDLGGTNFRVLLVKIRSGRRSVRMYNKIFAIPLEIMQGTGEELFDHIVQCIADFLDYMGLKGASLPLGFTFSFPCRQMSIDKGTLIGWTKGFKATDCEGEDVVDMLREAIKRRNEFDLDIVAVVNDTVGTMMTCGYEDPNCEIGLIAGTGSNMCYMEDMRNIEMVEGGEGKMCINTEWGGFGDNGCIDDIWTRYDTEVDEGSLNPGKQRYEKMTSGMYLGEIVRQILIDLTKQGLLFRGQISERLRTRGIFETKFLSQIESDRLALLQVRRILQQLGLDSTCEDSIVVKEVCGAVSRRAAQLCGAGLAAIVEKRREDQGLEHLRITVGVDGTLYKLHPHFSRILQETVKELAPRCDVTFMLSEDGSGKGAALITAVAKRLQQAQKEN
The experiment in a line: HKDC1 hexokinase inhibitors, dose response, biochemical, W721R variant (AID 504729). The assay is classed as functional.

Assay [1] in a line: growth suppression of PTEN-null colon cells, dose response, cell-based, HCT116 PTEN knockout (AID 1047).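 Also: HCT116 colon tumor cells with PTEN knocked out; cells exposed to compound for 60 hours before readout; potency for loss of cell viability measured by luminescence.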 The assay is classed as functional.
Assay [2] addresses T2, Calpain-2 catalytic subunit (Sus scrofa, UniProt P43367).
T2 sequence (P43367 whole entry): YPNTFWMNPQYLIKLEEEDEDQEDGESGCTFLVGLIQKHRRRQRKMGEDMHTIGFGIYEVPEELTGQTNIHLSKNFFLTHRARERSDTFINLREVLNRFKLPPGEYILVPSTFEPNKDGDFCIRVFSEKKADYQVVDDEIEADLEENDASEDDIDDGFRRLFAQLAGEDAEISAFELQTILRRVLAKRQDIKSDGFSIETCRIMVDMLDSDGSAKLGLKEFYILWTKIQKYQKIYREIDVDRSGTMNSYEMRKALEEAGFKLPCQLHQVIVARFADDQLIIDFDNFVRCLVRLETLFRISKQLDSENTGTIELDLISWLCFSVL
In words: pig calpain II inhibitor potency, dose response, biochemical, fluorogenic peptide substrate (AID 1420). The assay is classed as functional.

The test system of a further assay is HEK293. In words: inhibitors of LMP1-driven NF-kB reporter, dose response, cell-based, HEK293, luciferase, cherry-pick (AID 588343). The assay is classed as functional. Particulars: Homo sapiens.
A short description of assay [3]: Artemis endonuclease inhibitor potency, dose response, biochemical, fluorescence intensity (AID 720701).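 Also: Artemis endonuclease enzyme.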 The assay is classed as functional.
The target in assay [4] is T3, Mannose-6-phosphate isomerase (Homo sapiens, UniProt P34949).
T3 sequence (P34949 whole entry): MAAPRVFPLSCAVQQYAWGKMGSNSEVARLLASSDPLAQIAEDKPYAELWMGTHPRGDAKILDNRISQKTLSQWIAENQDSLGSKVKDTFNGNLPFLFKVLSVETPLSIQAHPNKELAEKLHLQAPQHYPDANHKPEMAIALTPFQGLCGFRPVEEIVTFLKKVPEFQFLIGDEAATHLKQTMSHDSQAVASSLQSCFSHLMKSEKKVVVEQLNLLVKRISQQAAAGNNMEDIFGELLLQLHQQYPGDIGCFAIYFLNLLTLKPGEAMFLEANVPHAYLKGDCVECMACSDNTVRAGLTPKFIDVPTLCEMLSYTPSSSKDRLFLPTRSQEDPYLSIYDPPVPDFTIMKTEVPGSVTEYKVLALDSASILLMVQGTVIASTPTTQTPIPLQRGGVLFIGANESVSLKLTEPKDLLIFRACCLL
In words: human PMI inhibitors, high substrate, primary screen, biochemical, fluorescence intensity, high mannose 6-phosphate (AID 1220).

The target in assay [5] is Hepatocyte nuclear factor 4-alpha (Homo sapiens, UniProt P41235). The assay is classed as functional, cell-based.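 Also: biochemical luminescence-based dose-response counterscreen measuring inhibition of HNF4 dimerization, run alongside a screen for blockers of ABHD5–perilipin-5 interaction; split luciferase complementation of HNF4 fusion proteins in cell lysate measuring dimerization.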
Hepatocyte nuclear factor 4-alpha, sequence (P41235 whole entry, the tested form may be a part): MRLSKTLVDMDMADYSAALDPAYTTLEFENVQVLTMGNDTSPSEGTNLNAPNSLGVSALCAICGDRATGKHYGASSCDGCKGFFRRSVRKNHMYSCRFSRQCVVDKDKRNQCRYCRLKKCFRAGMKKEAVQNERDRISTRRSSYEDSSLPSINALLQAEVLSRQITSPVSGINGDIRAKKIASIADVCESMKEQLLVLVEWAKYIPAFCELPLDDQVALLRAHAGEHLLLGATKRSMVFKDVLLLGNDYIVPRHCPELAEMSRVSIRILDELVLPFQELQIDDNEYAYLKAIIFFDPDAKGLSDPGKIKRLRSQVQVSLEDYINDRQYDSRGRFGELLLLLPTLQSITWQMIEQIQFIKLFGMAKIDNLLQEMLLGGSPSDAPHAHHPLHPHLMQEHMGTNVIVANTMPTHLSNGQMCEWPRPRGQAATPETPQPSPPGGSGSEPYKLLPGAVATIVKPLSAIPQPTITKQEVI
Assay [6] concerns the target DNA (cytosine-5)-methyltransferase 1 (Homo sapiens, UniProt P26358). The experiment in a line: DNMT1 methyltransferase inhibitors, confirmation, biochemical, fluorescent molecular beacon (AID 602386). The assay is classed as functional.
A short description of assay [7]: growth suppression of beta-catenin-knockout colon cells, dose response, cell-based, HCT116, human colon tumor (AID 1045).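 Also: HCT116 colon tumor cells with beta catenin knocked out; cells exposed to compound for 60 hours.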 The assay is classed as functional.
A short description of assay [8]: cytotoxicity toward HT-29 cells – cell-based, CellTiter-Glo luminescence, IC50, dose response (AID 1117330). The assay is classed as functional.
Assay [9] is described as follows: CellTiter-Glo luminescent dose response of DLD-1 viability loss (AID 1117352). The assay is classed as functional.
The nature of assay [10]: Concentration-dependent survival of SW480 colon cancer line, luminescence detection with CellTiter-Glo, half-maximal inhibitory concentration (AID 1117338). The assay is classed as functional.
Assay [11] is described as follows: HCT116 cell viability decrease, GSK3B pretreatment – CellTiter-Glo, IC50, dose response (AID 1117339). The assay is classed as functional. To be noted: HCT-116.
Assay [12] is described as follows: RKO cell viability reduction, dose response, CellTiter-Glo luminescence (AID 1117322). The assay is classed as functional.
Assay [13] in a line: cytotoxicity toward HCT116 cells – cell-based, CellTiter-Glo luminescence, IC50, dose response (AID 1117332). To be noted: HCT-116. The assay is classed as functional.
Assay [14] is described as follows: SNU-C1 cell viability reduction, dose response, CellTiter-Glo luminescence (AID 1117323). The assay is classed as functional, cell-based.
Assay [15] in a line: cytotoxicity toward Colo320 cells – cell-based, CellTiter-Glo luminescence, IC50, dose response (AID 1117334). The assay is classed as functional. Particulars: COLO 320.
Assay [16] in a line: P. falciparum late gametocyte killing, dose response, luminescence (AID 1117278).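 Also: gametocytes exposed to compound for 24 hours.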 The assay is classed as functional, cell-based.
Assay [17] in a line: Jurkat T cell cytotoxicity, dose response, cytotoxicity control for P. falciparum gametocyte viability project, luminescence (AID 1117277).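 Also: potency reflects loss of cellular ATP meaning fewer viable cells.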 The assay is classed as functional, cell-based.
The next assay deals with Vero. In words: cytotoxicity of synthesized analogs in Vero cells, SAR follow-up, cytotoxicity control for West Nile virus antiviral project, cell-based, set II (AID 2402). Particulars: Chlorocebus sabaeus. The assay is classed as functional.

DNA (cytosine-5)-methyltransferase 1, sequence (P26358 whole entry): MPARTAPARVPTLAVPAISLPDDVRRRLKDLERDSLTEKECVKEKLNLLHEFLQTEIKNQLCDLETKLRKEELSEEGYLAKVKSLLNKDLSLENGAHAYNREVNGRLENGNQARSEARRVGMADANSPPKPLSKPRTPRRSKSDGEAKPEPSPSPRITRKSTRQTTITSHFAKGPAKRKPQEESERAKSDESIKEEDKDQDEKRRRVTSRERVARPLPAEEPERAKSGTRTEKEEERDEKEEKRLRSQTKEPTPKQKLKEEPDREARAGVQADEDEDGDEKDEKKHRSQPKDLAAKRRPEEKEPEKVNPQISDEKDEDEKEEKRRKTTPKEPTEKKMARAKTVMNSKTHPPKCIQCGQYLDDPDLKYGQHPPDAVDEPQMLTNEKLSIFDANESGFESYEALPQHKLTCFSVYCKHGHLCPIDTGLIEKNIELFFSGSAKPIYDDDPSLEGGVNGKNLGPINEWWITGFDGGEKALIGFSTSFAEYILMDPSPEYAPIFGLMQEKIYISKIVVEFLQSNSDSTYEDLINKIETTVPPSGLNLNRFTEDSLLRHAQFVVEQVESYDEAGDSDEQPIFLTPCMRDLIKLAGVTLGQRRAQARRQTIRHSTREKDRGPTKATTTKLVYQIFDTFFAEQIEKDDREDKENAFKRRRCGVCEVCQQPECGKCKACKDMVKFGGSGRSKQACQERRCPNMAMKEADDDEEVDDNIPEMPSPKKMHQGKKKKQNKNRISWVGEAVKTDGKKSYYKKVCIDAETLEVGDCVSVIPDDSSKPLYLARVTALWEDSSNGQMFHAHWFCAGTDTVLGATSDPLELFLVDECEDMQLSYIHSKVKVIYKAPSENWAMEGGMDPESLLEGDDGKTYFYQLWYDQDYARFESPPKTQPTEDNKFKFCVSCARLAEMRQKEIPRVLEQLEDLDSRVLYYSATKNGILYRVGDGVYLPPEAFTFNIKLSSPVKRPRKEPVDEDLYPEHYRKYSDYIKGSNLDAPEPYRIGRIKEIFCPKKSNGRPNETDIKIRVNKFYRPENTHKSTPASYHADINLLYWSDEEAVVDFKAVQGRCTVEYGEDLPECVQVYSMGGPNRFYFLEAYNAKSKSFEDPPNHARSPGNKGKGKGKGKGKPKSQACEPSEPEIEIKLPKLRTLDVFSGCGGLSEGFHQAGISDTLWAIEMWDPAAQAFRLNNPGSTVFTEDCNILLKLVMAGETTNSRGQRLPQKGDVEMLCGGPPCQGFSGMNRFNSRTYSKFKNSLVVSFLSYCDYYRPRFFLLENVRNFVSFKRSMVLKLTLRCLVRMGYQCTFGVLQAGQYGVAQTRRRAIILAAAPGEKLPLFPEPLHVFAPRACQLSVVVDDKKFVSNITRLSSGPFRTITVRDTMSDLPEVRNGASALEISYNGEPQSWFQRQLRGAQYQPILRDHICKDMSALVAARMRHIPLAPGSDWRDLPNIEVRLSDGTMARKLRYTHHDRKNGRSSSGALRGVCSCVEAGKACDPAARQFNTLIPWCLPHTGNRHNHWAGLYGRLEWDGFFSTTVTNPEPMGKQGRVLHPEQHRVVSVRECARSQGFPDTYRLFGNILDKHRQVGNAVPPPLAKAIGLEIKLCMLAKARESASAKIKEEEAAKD

For `Cc1ccc(/C=N/NC(=O)c2csc(C)c2)o1`, at Transthyretin, the EC50 is > 167000 nM (inactive).
Regarding `Cc1oc2c(c1C(=O)c1ccc(Cl)cc1)C(=O)C(=O)c1ccccc1-2`, the 50% inhibitory concentration (IC50) at Hexokinase HKDC1 was 8830 nM (active); in assay [2] it was < 400 nM (not active); in assay [3], 1120 nM (active); in assay [4], > 50000 nM (not active); in assay [5] it was 3580 nM (active); in [6] it was 6050 nM (active). For the same molecule, the EC50 is 2630 nM (active) in assay [1] and 2360 nM (active) in [7]. The AC50 in the assay with HEK293 was 11700 nM (active).
On to `O=C(Nc1ccc(Br)cc1)c1cc(Br)c(Br)s1` [TIBROFAN], for which the 50% inhibitory concentration (IC50) was 520 nM (active) in assay [8]; 335 nM (active) in assay [9]; 123 nM (active) in assay [10]; 342 nM (active) in assay [11]; 431 nM (active) in assay [12]; 541 nM (active) in assay [13]. Moreover, the IC50 in assay [14] was 1100 nM (active); in [15] it was 18 nM (active).
`Nc1ccc(-c2cnc(-c3ccc(N)cc3)nc2)cc1`: the IC50 in [16] was > 109000 nM (inactive); in [17], > 83300 nM (inactive).
Turning to `OC1c2c(F)cccc2N=C2CCCN21` (stereo unspecified), in the assay on Vero, the 50% cytotoxic concentration (CC50) is > 200000 nM (active).

Source of the values: ChEMBL document CHEMBL1201862, “PubChem BioAssay data set” (2004).
